Peptide text beside a SMILES is read from it. * marks the point of attachment. Benzoyl(4-SO2NH2) = NS(=O)(=O)c1ccc(C(=O)*)cc1
Columns and labels:
wild-type hCAII protein = wild-type hCAII protein (Homo sapiens, UniProt P00918); test: colorimetric IC50 assay of NTMs and NTM-AAEIR peptides; format: biochemical; details: for Fold Enhancement (NTM IC50) / Fold Enhancement (NTM-AAEIR IC50): relative to NTM M64; for Fold Enhancement (NTM-AAEIR IC50): NTM on AAEIR
Procedure: The colorimetric assay used 300 nM of wild-type carbonic anhydrase incubated in 45 μL of 50 mM MOPS (pH 7.5), 33 mM Na2SO4, and 1 mM EDTA aliquoted into a 96-well, clear, flat-bottom plate. To each column of the plate, a 1/10 dilution series from 1 mM to 0.1 nM of each NTM was added and incubated at 25° C. for 10 minutes to reach binding equilibrium. […] The initial rate of hydrolysis was observed over the first 60 seconds. The slopes versus the concentration of NTM were put into a non-linear regression equation to determine the IC50 of the NTM to the carbonic anhydrase.

[1] = target: human carbonic anhydrase II (hCAII) (Homo sapiens, UniProt P00918); test: hCAII functional assay (pNP-OAc hydrolysis) with SABA-modified peptides; format: biochemical
Procedure: A functional assay for hCAII enzyme was set up. Carbonic anhydrase catalyzes the hydrolysis of 4-nitrophenyl acetate (4-NPA) to nitrophenol, which can be monitored by absorbance at 400 nm. The enzymatic carbonic anhydrase assay generally includes 0.2-1.0 μM enzyme and 10-500 μM 4-NPA in 20-200 μL in assay buffer. […] Metal chelating agents (EDTA or EGTA), salt (NaCl, sulfate), detergent (Tween or Triton), and organic additives (acetonitrile, DMSO) may be employed to facilitate enzyme stability and reagent solubility. For the assay, 1 μM human carbonic anhydrase II, 50 mM MOPS (pH 7.6), 33 mM disodium sulfate, and 1 mM EDTA. To generate NTM-modified peptides, azide-derivatized peptides (via azide-PEG-amine and carbodiimide coupling to C-terminus of peptide) were conjugated to DBCO-coupled beads. […] To evaluate P1 dependence of the binding reaction, multiple P1 residues has been tested.

[2] = target: biotinylated peptides M64-P1-P2-ΔK-(PEG9)(PEG9)-K(Biotin); test: bio-layer interferometry (BLI) of engineered binders; format: binding; details: M64 peptide, 22° C.
Procedure: Bio-layer interferometry (BLI) is an optical analytical and label-free method to directly measure kinetics between two biomolecules. In this technology, one biomolecule is immobilized on a surface in the form of a small tip, this tip is then dipped in a microplate containing the second biomolecule of interest. White light is directed down the tip to the tip surface where the binding is measured as a shift in wavelength that is caused as a result of the interference between incident and reflected light. More specifically, there are two surfaces at the tip, a reference layer and the experiment layer, the latter is where the biomolecules immobilize and bind. As the distance between these two layers increases due to biomolecules binding and immobilizing, the shift between incident and reflected wavelengths increases as caused by the light waves interfering at the two layers. Therefore, the size and the number of biomolecules that bind onto the surface is proportional to the shift measured. This shift is plotted against time to give a sensogram from which kon, koff and ultimately KD can be calculated.
All binding experiments were carried out on an 8-channel Gator Prime (Gator Bio) instrument. To measure the affinity of each binder-peptide pair, biotinylated peptides were immobilized on Streptavidin coated biosensor tips (Gator Bio), which were dipped in six binder concentrations and two controls. All binding assays were performed at 22° C. in 96 well polypropylene plates (Gator Bio) and carried out in triplicates with a well volume of 200 uL. Streptavidin coated biosensors were hydrated in the baseline buffer for 10 mins before each assay. All binding experiments used biotinylated peptides with the following sequence construct, M64-P1-P2-ΔK-(PEG9)(PEG9)-K(Biotin) and all peptides were diluted in the baseline buffer. Binders having sequences set forth in SEQ ID NO: 75-SEQ ID NO: 82 were tested. The binders originated from three different metalloenzyme scaffolds and were engineered according to the methods disclosed in Examples 4-6. […] All binders were serially diluted using the baseline buffer either by 2- or 3-fold. Baseline buffer consisted of 50 mM MOPS pH 7.5, 33 mM NaSO4, 1 mM EDTA and 0.1% Tween-20. The following protocol was used for each binding assay under shaker speed of 1000 rpm, which generated the best quality binding with minimal sensor to sensor variation and baseline drift (Table 14).
Between each binding assay, if biosensors were used more than once, the following protocol was used to regenerate the biosensor for subsequent binding assays (Table 15). Regeneration buffer consisted of […] and 10 mM Glycine pH 2.0.
Analysis of binding curves. […] Binding curves were aligned to the association step and subtracted using the reference curve. Each set of processed curves were then fit locally and inspected. The residual plot, R2 and Chi2 were examined to be <0.1 nm, […] and <3 nm respectively. […] Next, the qualifying curves were filled globally and the kinetic parameters kobs, kon, koff and KD were calculated along with their errors. The errors were inspected to be less than […] of its calculated value. Finally, the theoretical shift at equilibrium from the qualifying curves were filled on a steady state plot, and the KD and Rmax (theoretical maximum binding capacity in nm) were calculated from that curve. The kinetic parameters of exemplary generated binders (having sequences set forth in SEQ ID NO: 75-SEQ ID NO: 82) with their respective targets (indicated as P1 residue of immobilized peptides) are shown in Table 16.

[3] = 1 μM hCAII, 500 μM pNP-OAc, 10 minutes at 37° C., pNP release over 180 s

Molecule | Fold Enhancement (NTM IC50) (wild-type hCAII protein) | Fold Enhancement (NTM-AAEIR IC50) (wild-type hCAII protein) | other results
Cc1cc(S(N)(=O)=O)ccc1C(=O)O [M74, 2-methyl-4 sulfamoylbenzoic acid] | 0.2 | – | –
NS(=O)(=O)c1ccc(C(=O)O)c(F)c1 [M75, 2-Fluoro-4-sulfamoylbenzoic acid] | 2.1 | 2.2 | –
C[C@H](NC(=O)c1ccc(S(N)(=O)=O)cc1)C(=O)N[C@@H](C)C(=O)N[C@@H](C)C(=O)N[C@@H](C)C(=O)N[C@@H](CCC(=O)O)C(N)=O [(SAB)AAAAE] ({Benzoyl(4-SO2NH2)}-AAAAE-NH2) | – | – | IC50 ([1]; SABA-P1-P2 groups): 48 nM
NS(=O)(=O)c1ccc(C(=O)O)cn1 [M65, 6-Sulfamoylpyridine-3-carboxylic acid] | 2.2 | 0.3 | –
NS(=O)(=O)c1ccc(C(=O)O)cc1F [M88, 3-Fluoro-4-sulfamoylbenzoic acid] | 4.3 | 1.6 | –
NS(=O)(=O)c1ccc(C(=O)O)nc1 [M66] | 0.5 | – | IC50 (wild-type hCAII protein; free NTM, 300 nM wild-type carbonic anhydrase, 1 mM pNPA, 25° C.): 992 nM
C[C@H](NC(=O)[C@H](C)NC(=O)[C@H](Cc1ccccc1)NC(=O)c1ccc(S(N)(=O)=O)cc1)C(=O)N[C@@H](C)C(=O)N[C@@H](CCC(=O)O)C(N)=O [(SAB)FAAAE] ({Benzoyl(4-SO2NH2)}-FAAAE-NH2) | – | – | IC50 [1, 3]: 45 nM; IC50 ([1]; SABA-P1-P2 groups): 45 nM
Nc1cc(S(N)(=O)=O)ccc1C(=O)O [2-NH2, 2-Amino-4-sulfamoylbenzoic acid] | 0.3 | – | –
COc1cc(S(N)(=O)=O)ccc1C(=O)O [M73, 2-Methoxy-4-sulfarnoylbenzoic acid] | 0.0 | – | –
NS(=O)(=O)c1ccc(C(=O)O)c([N+](=O)[O-])c1 [M67, 2Nitro-4-sulfamoylbenzoic acid] | 3.8 | 2.0 | –
C[C@H](NC(=O)c1ccc(S(N)(=O)=O)cc1)C(=O)N[C@@H](Cc1ccccc1)C(=O)N[C@@H](C)C(=O)N[C@@H](C)C(=O)N[C@@H](CCC(=O)O)C(N)=O [(SAB)AFAAE] ({Benzoyl(4-SO2NH2)}-AFAAE-NH2) | – | – | IC50 [1, 3]: 183 nM; IC50 ([1]; SABA-P1-P2 groups): 183 nM
NS(=O)(=O)c1ccc(C(=O)O)c(Cl)c1 [M76, 2-Chloro-4-sulfamoylbenzoic acid] | 2.6 | 1.9 | –
75 (protein, Synthetic binder, S279_0004) EWGYASHNGPDHWHELFPNAKGENQSPIELHTKDIRHDPSLQPWSVSYDGGSAKTILNNGKTLGVVFDDTYDRSMLRGGPLPGPYRLREFHLHWGSSDDHGSEHTVDGVKYAAELHLLHWNPKYNTFKEALKQRDGLAVIGIFLKIGHENGEFQIFLDALDKIKTKGKEAPFTKFDPSSLFPASRDYWTYQGSMTIPPLMEAVVWLLLKEPMTVSSDQMAKLRSLLSSAENEPPVPLVSNWRPPQPINNRVVRASFK | – | – | Kd ([2]; P1 = T): 488 nM; koff ([2]; P1 = T): 0.0111 s⁻¹; kon ([2]; P1 = T): 23300 M⁻¹ s⁻¹; Kd ([2]; P1 = V): 20 nM; koff ([2]; P1 = V): 0.000473 s⁻¹; kon ([2]; P1 = V): 23700 M⁻¹ s⁻¹

Reference: patent US12467928B2, “N-terminal modifier agents and binders for treating and analyzing peptides” (Encodia, Inc., priority 2023, dated 2025)
